For this experiment, the target named is OTU domain-containing protein 3 (Homo sapiens) (UniProt Q5T2D3). The experiment can be described thus: Validation of screening hits, potency titration, in vitro enzymatic, OTU domain-containing protein 3 DUB inhibitors (AID 1645868). The conditions noted are these: purified OTUD3, ubiquitin-rhodamine cleavage fluorescence, 2 h.

The source made the active and inactive calls.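 Rule for the calls: active = maximal percent inhibition of the deubiquitinase OTUD3 of at least 30% across the tested doses; inactive = the rest.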

Sequence of OTU domain-containing protein 3 (Homo sapiens) (Q5T2D3 whole entry, looked up, the tested form may be a part): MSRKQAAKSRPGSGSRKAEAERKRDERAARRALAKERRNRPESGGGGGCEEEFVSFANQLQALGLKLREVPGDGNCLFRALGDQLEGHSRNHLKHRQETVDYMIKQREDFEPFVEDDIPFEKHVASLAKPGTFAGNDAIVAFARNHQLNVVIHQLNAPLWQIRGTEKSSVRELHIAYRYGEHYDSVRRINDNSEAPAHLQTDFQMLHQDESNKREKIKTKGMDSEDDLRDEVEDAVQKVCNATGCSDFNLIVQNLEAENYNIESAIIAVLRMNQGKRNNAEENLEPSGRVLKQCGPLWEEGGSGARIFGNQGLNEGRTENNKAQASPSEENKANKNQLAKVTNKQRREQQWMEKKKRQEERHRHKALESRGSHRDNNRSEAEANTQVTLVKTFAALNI

`Cn1c(CCN2CCCC2)nc2cc(NS(=O)(=O)c3ccccc3)ccc21`: the IC50 is > 50 µM (inactive). For the compound `COc1ccc(/C=C/C(=O)Nc2cccc(S(=O)(=O)Nc3ccccc3Cl)c2)c(OC)c1`, the IC50 was 25.5 µM. The result for `CCCc1nc2sc3c(NCCN4CCOCC4)ncnc3c2c2c1CCC2` reads > 50 µM (inactive); that for `O=S(=O)(c1ccc(F)cc1)N1CCCC1c1ccnc(Nc2cnccn2)n1` (stereo not drawn), > 50 µM (inactive). As for `COc1ccc(NC(=O)C2CCN(c3cncnc3N(C)C)CC2)cc1OC`, the IC50 was > 50 µM (inactive). For the compound `O=C(NC1CCN(c2nc(-c3cccnc3)nc3ccccc23)CC1)c1cccnc1`, the IC50 is > 50 µM (inactive). The figure for `COc1ccccc1NS(=O)(=O)c1cccc(NC(=O)CCc2nc3ccccc3s2)c1` is > 50 µM (inactive); for `CCCNc1cc(-c2ccccc2)nc2nc(-c3cccnc3)nn12` it is > 50 µM (inactive); for `O=C(NCc1ccncc1)C1CCN(c2cncnc2N2CCCCC2)CC1` it is > 50 µM (inactive). As to `Cc1cc(=O)n(CC(=O)NCc2ccccc2F)c2c1c(C)nn2-c1ccccc1`, the IC50 was 28.6 µM. `c1coc(CNc2nc3ccccc3n3nnnc23)c1`: the IC50 is > 50 µM (inactive). `COc1cccc(-c2nc(C(N)=O)c3[nH]c(=O)n(-c4cccc(Cl)c4)c3n2)c1OC`: the IC50 is > 50 µM (inactive). For `COc1ccccc1NS(=O)(=O)c1ccc2oc(SCC(=O)c3ccccc3)nc2c1`, the IC50 is > 50 µM (inactive). For the compound `Cc1nc(-c2ccc(C(=O)NCc3ccc(F)cc3)cc2)cs1`, the IC50 is > 50 µM (inactive). On to `CC(C)=CCC/C(C)=C/C[C@]1(O)C(=O)c2cc(O)cc(O)c2C(=O)[C@@]1(Cl)CC=C(C)C`, for which the IC50 was > 50 µM (inactive). In the case of `O=C(CCCn1c(=O)c2ccccc2n(CC(=O)NCc2ccccc2Cl)c1=O)NCc1ccc2c(c1)OCO2`, the IC50 is 3.31 µM. As for `O=C(Cn1c(-c2ccccc2)ncc(C(=O)NC2CC2)c1=O)Nc1ccccc1`, the IC50 was 25.5 µM. On to `CC(C)(C)N=C1Nc2ncccc2NC12CCCN(C(=O)c1ccccc1)C2` (stereo not drawn), for which the IC50 was > 50 µM (inactive). In the case of `c1ccc(-c2nc(-c3nnn(-c4ccccc4)c3-c3ccncc3)no2)cc1`, the IC50 was 26.8 µM. As for `O=C(Cn1nc2ccc(C(=O)NCc3ccccc3)cn2c1=O)Nc1ccc2c(c1)OCO2`, the IC50 is 38.4 µM. As to `CC(=O)c1cccc(NC(=O)c2ccc(N3CCCCC3)nn2)c1`, the IC50 is > 50 µM (inactive). For `O=C1CC(C(=O)Nc2ccccc2Cl)n2nc(-c3ccccc3)cc2N1` (stereo not drawn), the IC50 is 34 µM. Regarding `O=C(/C=C/c1c(F)cccc1Cl)N1CCc2ccccc2C1`, the IC50 was > 50 µM (inactive). As for `Cc1ccc(CNC(=O)c2cnc3ccccc3n2)cc1`, the IC50 was > 50 µM (inactive). Regarding `CCn1ccc2c(cc(C(=O)Nc3cccc(OC)c3)n2C)c1=O`, the IC50 was > 50 µM (inactive). For the compound `CC(=O)N1CCc2cc(S(=O)(=O)NCCC(=O)Nc3cccc(C)c3C)ccc21`, the IC50 was 23.3 µM. The figure for `COc1ccccc1C(=O)NCC(c1ccc2c(c1)CCCN2C)N1CCCC1` (stereo not drawn) is > 50 µM (inactive); for `O=C(Cn1ccc2ccc(N3CCOCC3)nc21)NCc1ccccc1F` it is > 50 µM (inactive). For `COc1cccc(NC(=O)Nc2nccn(-c3ccc(F)cc3)c2=O)c1`, the 50% inhibitory concentration (IC50) is 49.2 µM. Regarding `O=C(Nc1ccc(F)c(Cl)c1)c1ccc(N2CCCCS2(=O)=O)cc1Cl`, the IC50 is > 50 µM (inactive). The result for `NC(=O)c1nc(-c2cccnc2)nc2c1[nH]c(=O)n2-c1ccc2c(c1)OCO2` reads > 50 µM (inactive); that for `O=C(CN(Cc1ccc(Cl)cc1)S(=O)(=O)c1ccc(Cl)cc1)N1CCOCC1`, > 50 µM (inactive). With `Cc1nnc(C(=O)Nc2ccc(C(=O)NCc3ccccc3C)cc2)s1`, the IC50 was 28.5 µM. Regarding `COc1ccccc1-c1nc(-c2nnn(Cc3ccc(C)cc3)c2C)no1`, the IC50 is > 50 µM (inactive).

Regarding `Cc1nn(-c2ccccc2)c2c1N=C1C(Cl)=CC(Cl)=CN1C21C(=O)Nc2ccccc21` (stereo not drawn), the IC50 is > 50 µM (inactive). On to `O=C(CNc1ccc(F)c(Cl)c1)Nc1ccc2c(c1)OCCO2`, for which the IC50 is > 50 µM (inactive). Consider `CC[C@@]1(O)C[C@H](OC2CC(N(C)C)C(OC3CC(O)C(OC4CCC(=O)C(C)O4)C(C)O3)C(C)O2)c2c(cc3c(c2O)C(=O)c2c(O)ccc(O)c2C3=O)[C@H]1C(=O)OC` (stereo partly drawn), for which the IC50 is > 5 µM (inactive). Turning to `N#Cc1ccccc1OCc1csc(-c2ccccc2)n1`, the IC50 was > 50 µM (inactive). With `CCn1cnc2c(-c3ccccc3)cn(CC(=O)NCc3ccc4c(c3)OCO4)c2c1=O`, the IC50 is > 50 µM (inactive). `COC(=O)c1sc2ccccc2c1NC(=O)c1ccc(Br)s1`: the half-inhibitory concentration (IC50) is 21.2 µM. Turning to `CC(c1ccccc1)n1c(-c2ccc(F)cc2)nc2c(c(=O)c3ccccc3n2C)c1=O` (stereo not drawn), the IC50 is 4.65 µM.

Turning to `COC(=O)c1cc2c(ccn2C)n1CC(=O)NC1CCCC1`, the IC50 is > 50 µM (inactive). In the case of `CCOc1ccc2c(c1)c(=O)c(C(=O)c1ccccc1)cn2CC(=O)Nc1ccc2c(c1)OCCO2`, the concentration for half-maximal inhibition (IC50) was 43 µM. Regarding `COc1ccc(/C=C/c2ccnc3nc(-n4cccc4)nn23)cc1`, the IC50 is > 50 µM (inactive).

For the compound `Cc1ccc(-c2nnc(-n3ncc(C#N)c3N)c3ccccc23)cc1C`, the IC50 was > 50 µM (inactive). Regarding `CCn1c(SCc2cccc(C)c2)nnc1-c1cnccn1`, the IC50 was > 50 µM (inactive). Turning to `COC(=O)COc1ccc(/C=N/NC(=O)c2ccc(CN3CCc4ccccc4C3)cc2)cc1`, the IC50 is 43.8 µM. Turning to `CC(C(=O)Nc1ccccc1)n1cnc2nc(N3CCCCC3)ncc2c1=O` (stereo not drawn), the IC50 is > 50 µM (inactive).

Consider `CC(C)(C)c1ccc(C(=O)Nc2ccc(Oc3cccnc3)nc2)cc1`, for which the IC50 was > 50 µM (inactive). Take `CCc1nc(-c2cc(C(=O)N3CCOCC3)c3ccccn23)cs1`: the IC50 was > 50 µM (inactive). The figure for `CCOc1ccc(S(=O)(=O)Nc2ccc[nH]c2=O)cc1` is > 50 µM (inactive); for `C=C(NC(=O)C(=C)NC(=O)c1csc(-c2ccc3c(n2)-c2csc(n2)-c2csc(n2)C(C(C)C2CO2)NC(=O)C(Cc2ccc(O)cc2)NC(=O)c2csc(n2)C(C(O)c2ccccc2)NC(=O)c2nc(sc2C)C(CC(N)=O)NC(=O)c2csc-3n2)n1)C(=O)O` (stereo not drawn) it is 43.6 µM. `Cc1nc2sc(C(=O)Nc3ccccc3Br)c(N)c2c(C)c1C`: the concentration for half-maximal inhibition (IC50) is 15.5 µM.

For `Cc1ccc(C)c(Nc2cc(C)nc3nc(-c4ccco4)nn23)c1`, the IC50 is > 50 µM (inactive).

With `COc1ccc(NC(=O)C2CC(=O)Nc3c(-c4ccc(Cl)cc4)cnn32)c(OC)c1` (stereo not drawn), the IC50 is 34 µM. Regarding `Cn1cccc1C(=O)N1CCCC2(C1)Nc1cccnc1NC2=NC1CCCC1` (stereo not drawn), the IC50 was > 50 µM (inactive).

For `O=C(Nc1cccc(F)c1)C1CCCN(S(=O)(=O)N2CCCCCC2)C1` (stereo not drawn), the IC50 was > 50 µM (inactive). In the case of `CCn1c(SCC(=O)N2c3ccccc3CC2C)nnc1-c1ccc2c(c1)OCCO2` (stereo not drawn), the IC50 was > 50 µM (inactive). `O=C(Nc1cc(F)ccc1F)c1ccn(COc2ccc(F)c(Cl)c2)n1`: the IC50 is > 50 µM (inactive). The figure for `CN(C)c1cc(-n2cnc(C(=O)NCc3ccccc3Cl)c2)ncn1` is 30.4 µM; for `O=C(COC(=O)CCc1ccc(S(=O)(=O)N2CCOCC2)cc1)Nc1ccc2c(c1)OCCO2` it is > 50 µM (inactive); for `O=C(NCc1ccc2c(c1)OCO2)c1ccc(C2SCC(=O)N2Cc2ccco2)cc1` (stereo not drawn) it is > 50 µM (inactive).

As to `Cc1nc(C(=O)Nc2cccc(Cl)c2Cl)nn1-c1cc(Cl)cc(Cl)c1`, the IC50 is > 50 µM (inactive).

For the compound `O=C(Nc1ccc2c(c1)OCCO2)c1cccc2nc3ccccc3nc12`, the IC50 is 32.8 µM.

For the compound `O=C(OC1CSc2nc3ccccc3n2C1)c1ccc([N+](=O)[O-])o1` (stereo not drawn), the IC50 is 25.7 µM. Consider `COc1ccc(C(=O)Nc2cc(F)c3nc(N4CCOCC4)ccc3c2)c(OC)c1`, for which the IC50 is > 50 µM (inactive). The result for `O=C(OCc1cccc(Cl)c1)c1ccc2ccccc2n1` reads > 50 µM (inactive). For `CC(C)(C)c1cc(C[C@@H]2C[C@H](NC(=O)N3CCOCC3)C2(C)C)no1`, the IC50 was > 50 µM (inactive).

Regarding `COc1ccc2cc3c(nc2c1)OC(=O)N(CCc1cccc(F)c1)C3`, the IC50 was > 50 µM (inactive). The result for `CCCNC(=O)c1ccn(-c2ccc3ccc(-c4cnn(C)c4)cn23)n1` reads > 50 µM (inactive).

For the compound `Cc1ccccc1C(=O)NCCn1cc(SCC(=O)Nc2ccc3c(c2)OCCO3)c2ccccc21`, the IC50 was > 50 µM (inactive).

`CCOC(=O)[C@@H]1[C@@H](c2ccccc2)CN2CCN(C(=O)c3cnccn3)C[C@H]12`: the IC50 is > 50 µM (inactive). For the compound `CCc1noc(Cn2cnc3c4ccccc4n(CC(=O)NC4CCCCC4)c3c2=O)n1`, the IC50 was > 50 µM (inactive).

Regarding `O=C(Nc1cccc2ccccc12)N1CCC(c2nc3c(nnn3Cc3ccc(F)cc3)c(=O)[nH]2)CC1`, the IC50 was > 50 µM (inactive). Turning to `CN(CCc1ccccc1)c1nccc(N2CCN(C(=O)c3csc(-c4cccnc4)n3)CC2)n1`, the IC50 was > 50 µM (inactive). In the case of `COc1ccc(NC(=O)CN2CCN(c3ccc(C(C)=O)cc3)CC2)cc1S(=O)(=O)N1CCCCC1`, the IC50 is > 50 µM (inactive). Take `O=C(Nc1ccc2c(c1)OCCO2)C1CCC(Cn2cnc3ccccc3c2=O)CC1` (stereo not drawn): the IC50 was > 50 µM (inactive). For the compound `Cn1c(C(=O)NCc2ccccn2)cc2c(=O)[nH]c3ccccc3c21`, the IC50 was > 50 µM (inactive). As for `O=C(Nc1ccccc1)c1cn2c3c(cccc3c1=O)CC2`, the IC50 was > 50 µM (inactive). On to `COc1ccc(N2C(=O)[C@@H]3[C@H]4c5ccccc5C=CN4C(C(=O)Nc4ccc5c(c4)OCO5)[C@@H]3C2=O)cc1` (stereo partly drawn), for which the IC50 is > 50 µM (inactive). Take `Cc1nc(-c2cccc(NC(=O)c3ccccc3Cl)c2)no1`: the IC50 is > 50 µM (inactive).

Take `O=c1ccc(-c2noc(Cc3c(F)cccc3Cl)n2)c[nH]1`: the IC50 was > 50 µM (inactive).

On to `O=C(C(c1ccccc1)c1ccccc1)N1CCC(c2nc3c(nnn3Cc3c(F)cccc3Cl)c(=O)[nH]2)CC1`, for which the half-inhibitory concentration (IC50) was 27.3 µM.

As usually defined, the IC50 is the concentration needed to halve the response being measured.

The values are drawn from PubChem BioAssay AID1645868 (Buhrlage Lab, Dana-Farber Cancer Institute and Novartis …, 2021).
